Data published in patent US10829493B2, “Compositions and methods for treating KIT- and PDGFRA-mediated diseases” (Blueprint Medicines Corporation, priority 2019, dated 2020).
Like-named read-outs stand apart in the source and are kept apart here.

Tests used:
KIT D816V [1] = target: KIT D816V (Homo sapiens (Human), UniProt P10721, D816V); assay: KIT D816V biochemical enzymatic activity assay (EZReader 2 mobility shift); conditions: at APPKM for ATP, 20 μM ATP, 60 minutes
Description: (§1) PDGFRα and KIT enzymatic activity was monitored using the Perkin Elmer electrophoretic mobility shift technology platform, the EZReader 2.
(§2) Within the linear, steady-state phase of the kinase enzymatic reaction, the mixed pool of phosphorylated (product) and non-phosphorylated (substrate) peptides was passed through the microfluidic system of the PerkinElmer EZ Reader 2, under an applied electric potential difference. The presence of the phosphate group on the product peptide provided a difference in mass and charge between that of the substrate peptide, resulting in a separation of the substrate and product pools in the sample (Perrin et al., Expert Opin Drug Discovery 2010 Jan. 5(1):51-63).
(§3) As the product and substrate peptide mixture passes the lasers within the instrument, these pools are detected (λex=488 nm, λem=568 nm) and resolved as separate peaks. The ratio between these peaks reflects the activity of the compound at that concentration, in that well, under those conditions.
(§4) All test articles were dissolved in 100% DMSO at a stock concentration of 10 mM. A 100×, 10-point, 4-fold serial dilution of all test compounds was created in 100% DMSO, starting at a relevant concentration, usually 1 mM. A volume of 0.130 μL of each concentration was transferred to the relevant well of a 384-well assay plate (Greiner 781 201) using a TTPLabtech Mosquito nano-liter dispenser. Using the Multidrop, the remaining constituents of the reaction were then added to the 0.130 μL of compound as follows:
The plate was read on a Caliper EZReader 2.

PDGFRα D842V = PDGFRα D842V (Homo sapiens (Human), UniProt P16234, D842V); assay: PDGFRα D842V biochemical enzymatic activity assay (EZReader 2 mobility shift); conditions: at APPKM for ATP, 25 μM ATP, 90 minutes
Description: as §1, §2, §3
Inhibition of KIT (D816V) PDGFRα (D842V) Mutant Biochemical Enzymatic Activity
as §4
The reaction was stopped by the addition of 70 μl of Stop buffer (100 mM HEPES pH 7.5, 0.015% Brij 35, 35 mM EDTA and 0.2% of Coating Reagent 3, Caliper Lifesciences). The plate was read on a Caliper EZReader 2.

KIT D816V [2] = target: KIT D816V (Homo sapiens (Human), UniProt P10721, D816V/V560G); assay: HMC1.2 autophosphorylation assay (phospho-Y719 KIT AlphaLISA); type: cell-based; conditions: HMC1.2 cell line, KIT autophosphorylation at tyrosine 719, 90 minutes; read-out: KIT (P-KIT HMC1.2 (nM))
Description: 10,000 HMC1.2 cells were incubated in 22 μL culture media (phenol-red free IMDM, no serum) in each well of a 384-well plate and serum starved overnight in a tissue culture incubator (5% CO2, 37° C.). […] 10 μL of 100 μg/mL streptavidin donor beads (Perkin Elmer) were added to each well, blocked from light with solid black adhesive and shaken at 300 rpm at room temperature for 2 hours. Fluorescence signal was obtained on Envision (Perkin Elmer) by AlphaScreen 384 well HTS protocol.

[3] = Brain penetration in rats, brain to plasma ratios (Kp,brain, Kpuu,brain); type: in vivo, Sprague-Dawley rats; conditions: for Kp uu at 24 h / Kp at 24 h: Sprague-Dawley, rat, brain, intravenous, 1 mg/kg/hr; for Kp at 24 h / Rat Kp: rat brain to plasma ratio; for Kp at 24 h: read-out: Rat Kp
Description: To understand the brain penetration, brain to plasma ratios of the compounds were obtained in Sprague-Dawley (SD) rats. In vivo equilibrium distribution between blood and brain in preclinical species such as rats is a commonly used parameter to evaluate brain penetration. Kp,brain is the ratio of concentrations in brain and blood (Cbrain/Cplasma) The compound's passive diffusion characteristics, its affinity for membrane transporters at the blood-brain barrier (BBB), and the relative drug binding affinity differences between the plasma proteins and brain tissue influence the Kp,brain.
The animals received IV infusion of 1 mg/kg/hr of the compound over 24 hours via jugular vein cannulation. At 24 hours, blood was collected via tail vein bleeding or cardiac puncture (under anesthesia) and centrifuged to obtain plasma samples. Brain tissues were collected and homogenized with phosphate-buffered saline (PBS). The concentrations of the compounds were obtained in the plasma and brain homogenates by LC-MS/MS analysis.

wt KIT kinase = wt KIT kinase (Homo sapiens (Human), UniProt P10721); assay: Wild-type KIT binding assay (Kd determination, phage-tagged kinase, qPCR)
Description: Kd Determinations. For most assays, including wt KIT kinase, kinase-tagged T7 phage strains were prepared in an E. coli host derived from the BL21 strain. E. coli were grown to log-phase and infected with T7 phage and incubated with shaking at 32° C. until lysis. […] The liganded beads were blocked with excess biotin and washed with blocking buffer (SeaBlock (Pierce), 1% BSA, 0.05% Tween 20, 1 mM DTT) to remove unbound ligand and to reduce non-specific binding. […] Test compounds were prepared as 111× stocks in 100% DMSO. Kds were determined using an 11-point 3-fold compound dilution series with three DMSO control points. […] The compounds were then diluted directly into the assays such that the final concentration of DMSO was 0.9%. All reactions were performed in polypropylene 384-well plate. Each was a final volume of 0.02 ml. […] The kinase concentration in the eluates was measured by qPCR.
Binding Constants (Kds). Binding constants (Kds) were calculated with a standard dose-response curve using the Hill equation: Response=Background+Signal−Background 1+(KdHill Slope/DoseHill Slope). The Hill Slope was set to −1. Curves were fitted using a non-linear least square fit with the Levenberg-Marquardt algorithm.

UT-7 cells = assay: UT-7 cell proliferation with SCF stimulation as a measure of wild-type KIT activity (CellTiter-Glo); type: cell-based, human; conditions: Homo sapiens, UT7, 72 h, SCF-stimulated UT-7 cell proliferation
Description: UT-7 Cell Proliferation with SCF Stimulation Assay as a Measure of Wild-Type KIT Activity
UT-7 cells are human megakaryoblastic leukemia cell lines that can be grown in culture with dependence on granulocyte macrophage colony stimulating factor (GM-CSF) or stem cell factor (SCF). UT-7 cells respond to SCF stimulation by activation of the KIT receptor tyrosine kinase and subsequent downstream signaling that can support cell growth and proliferation (Kuriu et al, 1999; Komatsu et al, 1991; Sasaki et al, 1995). Test compounds were assayed for their ability to inhibit SCF-stimulated proliferation of UT-7 cells.
Inhibition of SCF-stimulated UT-7 cell proliferation was assessed using the CellTiter-Glo assay that quantifies the amount of adenosine triphosphate (ATP) present, which is a readout of metabolically active cells and is directly proportional to the number of viable cells in culture. The ability of test compounds to inhibit SCF-stimulated UT-7 cell proliferation was determined using a 10-point dose curve ranging from 25 μM to 95.4 pM of test compound.
UT-7 cells were maintained in IMDM supplemented with 10% FBS, 5 ng/mL GM-CSF and 100 units/mL Penicillin-Streptomycin and grown in a 37° C. humidified tissue culture incubator. UT-7 cells were washed once with serum free, GM-CSF free IMDM. Cells were then resuspended in IMDM containing 4% FBS and 50 ng/mL SCF and seeded at 2500 cells per well in a volume of 22 μL in a 384-well microplate. A 10-point dose concentration series of test compounds (25.0 μM to 95.4 pM) were then added to the cells in a volume of 3.1 μL to each well (0.25% DMSO final concentration) and placed in a tissue culture incubator (5% CO2, 37° C.) for 72 hours. After 3-days with test compound, CellTiter-Glo reagent was prepared fresh and 25 μL of reagent was added to each well. The plate was mixed by shaking for 10 minutes at RT at 300 rpm on a plate shaker. The plate was read on an EnVision plate reader using the Ultra Sensitive Luminescence protocol for a 384-well plate.

[4] = rat brain slice, read-out: Rat Kp, uu Brain slice
[5] = homogenate rat brain, read-out: Rat Kp, uu Homogenate

Sequence of wt KIT kinase (P10721 26-976): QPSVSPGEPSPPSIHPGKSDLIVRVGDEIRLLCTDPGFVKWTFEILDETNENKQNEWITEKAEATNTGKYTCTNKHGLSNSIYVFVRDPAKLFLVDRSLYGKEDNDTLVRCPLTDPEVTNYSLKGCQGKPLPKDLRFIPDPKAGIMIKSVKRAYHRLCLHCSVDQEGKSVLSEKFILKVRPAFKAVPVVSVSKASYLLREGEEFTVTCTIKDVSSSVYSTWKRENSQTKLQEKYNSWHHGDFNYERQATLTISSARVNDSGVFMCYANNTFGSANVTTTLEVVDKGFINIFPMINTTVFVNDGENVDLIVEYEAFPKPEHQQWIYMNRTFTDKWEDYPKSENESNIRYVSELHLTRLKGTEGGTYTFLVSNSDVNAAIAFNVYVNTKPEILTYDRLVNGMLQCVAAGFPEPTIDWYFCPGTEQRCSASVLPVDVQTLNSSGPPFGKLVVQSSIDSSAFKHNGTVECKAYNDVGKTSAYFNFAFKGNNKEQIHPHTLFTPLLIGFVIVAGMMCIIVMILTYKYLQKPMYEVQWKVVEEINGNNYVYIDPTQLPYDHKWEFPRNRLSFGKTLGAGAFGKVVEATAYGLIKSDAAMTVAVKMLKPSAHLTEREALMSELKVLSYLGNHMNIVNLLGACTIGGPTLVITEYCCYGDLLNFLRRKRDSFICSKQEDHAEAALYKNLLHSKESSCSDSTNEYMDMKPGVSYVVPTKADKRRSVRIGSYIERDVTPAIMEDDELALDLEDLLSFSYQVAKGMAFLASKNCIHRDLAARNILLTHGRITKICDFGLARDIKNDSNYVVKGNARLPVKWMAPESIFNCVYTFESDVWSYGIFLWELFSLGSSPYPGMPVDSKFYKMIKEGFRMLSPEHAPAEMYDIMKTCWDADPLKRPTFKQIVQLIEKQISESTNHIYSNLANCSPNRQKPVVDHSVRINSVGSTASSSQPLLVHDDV
Sequence of KIT D816V (Homo sapiens (Human), UniProt P10721, D816V/V560G) (P10721 26-976 V560G/D816V): as the sequence (P10721 26-976) above, with V535G, D791V counted along it
Sequence of KIT D816V (Homo sapiens (Human), UniProt P10721, D816V) (P10721 26-976 D816V): as the sequence (P10721 26-976) above, with D791V counted along it
Sequence of PDGFRα D842V (P16234 24-1089 D842V): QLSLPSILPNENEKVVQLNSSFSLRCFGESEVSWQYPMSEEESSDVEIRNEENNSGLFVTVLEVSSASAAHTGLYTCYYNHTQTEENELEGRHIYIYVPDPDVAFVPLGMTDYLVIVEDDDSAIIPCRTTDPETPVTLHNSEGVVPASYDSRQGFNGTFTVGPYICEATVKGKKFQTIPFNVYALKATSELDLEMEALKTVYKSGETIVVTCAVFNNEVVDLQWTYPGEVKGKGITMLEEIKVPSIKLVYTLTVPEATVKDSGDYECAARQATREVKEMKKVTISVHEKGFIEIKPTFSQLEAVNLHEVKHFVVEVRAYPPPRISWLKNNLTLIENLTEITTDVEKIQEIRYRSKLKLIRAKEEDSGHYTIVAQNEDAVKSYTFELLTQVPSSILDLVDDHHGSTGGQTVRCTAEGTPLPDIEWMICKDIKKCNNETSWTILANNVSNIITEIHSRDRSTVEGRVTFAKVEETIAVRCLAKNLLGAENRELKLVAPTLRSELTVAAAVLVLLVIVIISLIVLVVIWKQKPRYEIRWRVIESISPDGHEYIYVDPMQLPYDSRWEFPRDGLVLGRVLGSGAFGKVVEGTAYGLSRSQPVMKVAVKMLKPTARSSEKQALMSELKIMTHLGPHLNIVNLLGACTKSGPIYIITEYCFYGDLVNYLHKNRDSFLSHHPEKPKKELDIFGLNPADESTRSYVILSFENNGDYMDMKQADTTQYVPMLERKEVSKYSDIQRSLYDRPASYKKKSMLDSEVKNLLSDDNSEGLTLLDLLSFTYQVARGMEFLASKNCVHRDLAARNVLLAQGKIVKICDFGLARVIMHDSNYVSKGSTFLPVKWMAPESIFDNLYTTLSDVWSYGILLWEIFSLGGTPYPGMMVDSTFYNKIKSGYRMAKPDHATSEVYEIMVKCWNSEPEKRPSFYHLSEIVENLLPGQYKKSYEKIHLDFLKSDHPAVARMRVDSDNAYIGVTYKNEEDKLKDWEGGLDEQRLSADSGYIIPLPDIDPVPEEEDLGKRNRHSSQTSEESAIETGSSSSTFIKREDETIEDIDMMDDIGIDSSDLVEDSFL

C[C@](N)(c1ccc(F)cc1)c1cnc(N2CCN(c3ncnn4cc(-c5cnn([C@@H]6COC[C@H]6O)c5)cc34)CC2)nc1 (single isomer, unassigned) [Compound 19]
IC50 (KIT D816V [1]): ≤ 0.3 nM | IC50 (PDGFRα D842V): ≤ 0.3 nM | IC50 (KIT D816V [2]): < 4.5 nM | Kp uu at 24 h [3, 4]: 0.04 | Kd (wt KIT kinase): < 10 nM | IC50 (UT-7 cells): 90.1 to 150 nM

C[C@](N)(c1ccc(F)cc1)c1cnc(N2CCN(c3ncnn4cc(-c5cnn([C@H]6CC[C@@H]6O)c5)cc34)CC2)nc1 (single isomer, unassigned) [Compound 21]
IC50 (KIT D816V [1]): 0.31 to 1 nM | IC50 (PDGFRα D842V): ≤ 0.3 nM | IC50 (KIT D816V [2]): < 4.5 nM | Kp uu at 24 h [3, 5]: 0.36 | Kp uu at 24 h [3, 4]: ≤ 0.1 | Kd (wt KIT kinase): < 10 nM | IC50 (UT-7 cells): 90.1 to 150 nM

C[C@](N)(c1ccc(F)cc1)c1cnc(N2CCN(c3ncnn4cc(-c5cnn(CC6COC6)c5)cc34)CC2)nc1 [Compound 8, (S)-1-(4-fluorophenyl)-1-(2-(4-(6-(1-(oxetan-3-ylmethyl)-1H-pyrazol-4-yl)pyrrolo[2,1-f][1,2,4]triazin-4-yl)piperazin-1-yl)pyrimidin-5-yl)ethan-1-amine]
IC50 (KIT D816V [1]): ≤ 0.3 nM | IC50 (PDGFRα D842V): ≤ 0.3 nM | IC50 (KIT D816V [2]): < 4.5 nM | Kp uu at 24 h [3, 5]: ≤ 0.2 | Kp uu at 24 h [3, 4]: ≤ 0.1 | Kp at 24 h [3]: 0.43 | Kd (wt KIT kinase): < 10 nM | IC50 (UT-7 cells): < 90 nM

C[C@](N)(c1ccc(F)cc1)c1cnc(N2CCN(c3ncnn4cc(-c5cnn([C@H]6C[C@@H](O)C6)c5)cc34)CC2)nc1 [Compound 10, cis-3-(4-(4-(4-(5-((S)-1-Amino-1-(4-fluorophenyl)ethyl)pyrimidin-2-yl)piperazin-1-yl)pyrrolo[2,1-f][1,2,4]triazin-6-yl)-1H-pyrazol-1-yl)cyclobutanol]
IC50 (KIT D816V [1]): 0.31 to 1 nM | IC50 (PDGFRα D842V): ≤ 0.3 nM | IC50 (KIT D816V [2]): < 4.5 nM | Rat Kp [3]: 0.23 | Kd (wt KIT kinase): < 10 nM | IC50 (UT-7 cells): < 90 nM

C[C@](N)(c1ccc(F)cc1)c1cnc(N2CCN(c3ncnn4cc(-c5cnn([C@@H]6CCOC6)c5)cc34)CC2)nc1 [Compound 14, (S)-1-(4-Fluorophenyl)-1-(2-(4-(6-(1-((R)-tetrahydrofuran-3-yl)-1H-pyrazol-4-yl)pyrrolo[2,1-f][1,2,4]triazin-4-yl)piperazin-1-yl)pyrimidin-5-yl)ethanamine]
IC50 (KIT D816V [1]): ≤ 0.3 nM | IC50 (PDGFRα D842V): ≤ 0.3 nM | IC50 (KIT D816V [2]): < 4.5 nM | Kp uu at 24 h [3, 5]: 0.22 | Kp at 24 h [3]: < 0.39 | Rat Kp [3]: 0.35 | Kd (wt KIT kinase): < 10 nM | IC50 (UT-7 cells): 150 to 200 nM

C[C@](N)(c1ccc(F)cc1)c1cnc(N2CCN(c3ncnn4cc(-c5cnn([C@H]6CCOC6)c5)cc34)CC2)nc1 [Compound 15, (S)-1-(4-Fluorophenyl)-1-(2-(4-(6-(1-((S)-tetrahydrofuran-3-yl)-1H-pyrazol-4-yl)pyrrolo[2,1-f][1,2,4]triazin-4-yl)piperazin-1-yl)pyrimidin-5-yl)ethanamine]
IC50 (KIT D816V [1]): ≤ 0.3 nM | IC50 (PDGFRα D842V): ≤ 0.3 nM | IC50 (KIT D816V [2]): < 4.5 nM | Kp uu at 24 h [3, 5]: 0.62 | Kp uu at 24 h [3, 4]: ≤ 0.1 | Kp at 24 h [3]: 0.9 | Kd (wt KIT kinase): < 10 nM | IC50 (UT-7 cells): 150 to 200 nM

C[C@](N)(c1ccc(F)cc1)c1cnc(N2CCN(c3ncnn4cc(-c5cnn(C6CCOCC6)c5)cc34)CC2)nc1 [Compound 16, (S)-1-(4-Fluorophenyl)-1-(2-(4-(6-(1-(tetrahydro-2H-pyran-4-yl)-1H-pyrazol-4-yl)pyrrolo[2,1-f][1,2,4]triazin-4-yl)piperazin-1-yl)pyrimidin-5-yl)ethan-1-amine]
IC50 (KIT D816V [1]): ≤ 0.3 nM | IC50 (PDGFRα D842V): ≤ 0.3 nM | IC50 (KIT D816V [2]): 4.6 to 10 nM | Kp uu at 24 h [3, 5]: ≤ 0.2 | Kp uu at 24 h [3, 4]: ≤ 0.1 | Kp at 24 h [3]: 0.93 | Kd (wt KIT kinase): < 10 nM | IC50 (UT-7 cells): 150 to 200 nM
